Tests used:
[1] = tested on: MV4-11 blasts; assay: GILT combined with MIF inhibitor or CXCR2 inhibitor on MV4-11 blasts in vitro (FACS); assay type: cell-based, human; settings: for most effective dose on MV4-11 based on the FACS analyses: dose-dependent experiments with or without 80 nM GILT
Protocol: (§1) Whether targeting the MIF-CXCR2 signaling pathway would effectively treat AML blasts were investigated. First, the combination of GILT with ribosomal protein S19 (RPS19) on MV4-11 blasts was tested in vitro. RPS19, a MIF inhibitor, has been reported to suppress cisplatin-activated MIF-CD74-NFκB signaling pathway in acute kidney injury. […] The combination of 80 nM GILT with 50 uM SB225002, a CXCR2-inhibitor (CXCR2-I) on MV4-11 blasts in vitro were examined. […] The anti-leukemic effect of combining GILT with CXCR2-I on primary BMMNC ex vivo were examined. […] There may be alternative cytokine pathways compensating for the defect of MIF-CXCR2 pathways.
(§2) For MIF in vitro experiments, different doses of MIF were added to 1 ml of 1×10^6 MV4-11 cells or RAW264.7 cells for each experimental group in 24-well plates. Two days after the one dose treatment, cells were then collected for either analyses by FACS and qPCR. As combination agents to treat blasts in vitro or ex vivo, one dose of 80 nM GILT with one dose of different inhibitors were added to 1 ml of 1×10^6 MV4-11 cells or 1 ml of 0.5-1×10^6 primary AML BMMNC for each experimental group in 24-well plates. Dose-dependent experiments of CXCR2 inhibitor and NFκB inhibitor with or without 80 nM GILT were performed. […] Three days after the one dose treatment, cells were then collected for either analyses by FACS and qPCR.
(§3) Flow Cytometry (FACS). Cells were harvested and examined for the expression of cell surface biomarkers (CD) and intracellular proteins by multichromatic FACS as previously described. About 1×10^4˜10^6 cells in 100 μl FACS buffer (PBS containing 1% FBS and 0.05% sodium azide) were stained with various fluorescence-conjugated antibodies specific for the desired cell surface proteins at 4° C. for 30 min. The surface-stained cells were then fixed and permeabilized using the appropriate reagents (e.g. the BD Pharmingen Cytofix/Cytoperm buffer) and stained with different fluorescence-conjugated antibodies specific for the desired intracellular proteins at 4° C. for 2 hours in the permeabilizing buffer (e.g. the BD Perm/Wash buffer). Concentrations of the Abs were used per the manufacturers' recommendations. Finally, the cells were washed twice in the permeabilizing buffer and twice in the FACS buffer before being analyzed on the BD FACSAria II. Data was analyzed using the FlowJo software (Tree Star Inc., Ashland, OR).

[2] = tested on: primary AML BMMNC; assay: Ex vivo combination treatment of primary AML BMMNC (FACS, imaging, qPCR); assay type: cell-based, human; settings: 80 nM GILT
Protocol: as §1
The combination of 80 nM GILT and 50 uM BAY11-7821 (a NFκB-I) was tested as a novel therapeutic approach for AML.
Next, the anti-leukemic effect of the combination was examined on primary BMMNC from refractory AML patients (Patient #7, Table 4).
Human Samples. AML bone marrow (BM) mononuclear cells (BMMNC) (Patients #1-7, Table 4) were obtained from the City of Hope National Medical Center (COHNMC). All donor patients signed an informed consent form. Sample acquisition was approved by the Institutional Review Boards at the LLUMC and the COHNMC in accordance with an assurance filed with and approved by the Department of Health and Human Services, and it met all requirements of the Declaration of Helsinki.
as §2, §3
RNA Isolation and Real-Time Polymerase Chain Reaction (qPCR) analysis. MV4-11 and MOLM-14 cells were cultured with the presence of TKI drugs for 72 hours or re-plated 28 days after the treatment of TKI drugs. Cells were isolated for RNA isolation and qPCR analysis as previously described. Total RNA was isolated using the RNeasy Micro Kit (Qiagen) according to the manufacturer's instruction. First-strand cDNA was synthesized using the SuperScript III Reverse Transcriptase (Invitrogen; Life Technologies). With an Applied Biosystems 7900HT Real-Time PCR machine, qPCR was performed and analyzed using known primers for the specific markers. The PCR conditions were 10 minutes at 95° C. followed by 40 cycles of 10 seconds at 95° C. and 15 seconds at 60° C. The relative expression level of a gene was determined using the ΔΔCt method and normalized to GAPDH.

[3] = tested on: MV4-11 cells; assay: FACS of TKI-treated MV4-11 cells in vitro (viable blasts, Ki67, pBAD); assay type: cell-based, human; settings: 3 days after the treatment
Protocol: (§4) The AML cells were analyzed at different time points after exposure to TKI (3 days, 10 days, 20 days, and 28 days). […] After 3 days, FACS of the surface markers and intracellular proteins, including CD14, CD33, CD44, and Ki67, were performed. FIGS. 1A-1E depicts therapeutic effect of different TKIs on MV4-11 and MOLM-14 cells in vitro (N=6). […] The circles indicate the group of viable blasts located in a FACS plot and green arrows indicate the dying tendency of blasts which will become positive for viability dye during the next few days. FIGS. 1C and 1D are graphical representations of the cumulative FACS percentage data of viable MV4-11 and MOLM-14 cells. *P<0.05. […]
as §3, with “Cells were harvested and examined for the expression of cell surface biomarkers (CD) and intracellular proteins by multichromatic FACS as previously described.” left out, “Concentrations of the Abs were used per the manufacturers' recommendations.” left out, “Data was analyzed using the FlowJo software (Tree Star Inc., Ashland, OR).” left out

[4] = tested on: MOLM-14 cells; assay: FACS of TKI-treated MOLM-14 cells in vitro (viable blasts, pBAD); assay type: cell-based, human; settings: 3 days after the treatment
Protocol: as §4
as §3, with “Cells were harvested and examined for the expression of cell surface biomarkers (CD) and intracellular proteins by multichromatic FACS as previously described.” left out, “Concentrations of the Abs were used per the manufacturers' recommendations.” left out, “Data was analyzed using the FlowJo software (Tree Star Inc., Ashland, OR).” left out

[5] = tested on: MV4-11 cells; assay: FACS time course of CD44+pBAD+ and Ki67+CD33+CD44+ populations in TKI-treated MV4-11; assay type: cell-based, human
Source text: (§5) To follow the cell fate of TKI-treated MV4-11 and MOLM-14, culturing of blasts were continued by performing medium change every 2-3 days. […] The BAD protein is a pro-apoptotic member of the BCL-2 gene family, which is involved in initiating apoptosis. Dephosphorylated BAD is pro-apoptotic by binding BCL-2 and inactivating BCL-2, while phosphorylated BAD (pBAD) is anti-apoptotic by leaving BCL-2 free to inhibit BAX-triggered apoptosis.
(§6) Small Molecular Inhibitors and in vitro & ex vivo Treatment. […] The dose of 80 nM for the four TKIs was selected based on their dose-dependent cytotoxicity in previous reports. […] Both GILT and QUIZ were reported to start to suppress the tumorigenic clustering and c-Kit at the dose of 80 nM. […] The combination of 5 μM 5-Azacitidine (AZA) and 80 nM 1α,25-Dihydroxyvitamin D3 (VD3) was added to the experimental group similar to the previous report. As combination agents to treat blasts in vitro, one dose of 80 nM GILT with one dose of either 100 nM Venetoclax (BCL2 inhibitor), 10 μM (R)-Lisofylline (STAT4 inhibitor), 100 nM AZD1208 (PIM inhibitor), 500 nM PF-06826647 (TYK2 inhibitor), or 500 nM AT9283 (JAK2/3 inhibitor) were added to 1 ml of 1×10^6 cells for each experimental group in 24 well plates. Three days after the one dose treatment, cells were then collected for either analyses by FACS and qPCR, or re-plated into 24 well plates for continued culture. At different time points, re-plated cells were collected for analyses by FACS and qPCR. Medium change was performed every 2-3 days.
as §3

[6] = tested on: MV4-11 cells; assay: Phase-bright imaging of re-growth of TKI-treated MV4-11; assay type: cell-based, human
Source text: as §5, §6
Imaging Acquisition. Phase-bright images were taken using an Olympus 1X71 inverted microscope and were processed using an Olympus cellSens Dimension 1.15 Imaging Software.

[7] = tested on: MOLM-14 cells; assay: Phase-bright imaging of re-growth of TKI-treated MOLM-14; assay type: cell-based, human; settings: 10 days after TKI treatment
Source text: as §5
as §6, with “At different time points, re-plated cells were collected for analyses by FACS and qPCR. Medium change was performed every 2-3 days.” left out

[8] = tested on: MV4-11; settings: 100 nM, cited from earlier work
[9] = tested on: MV4-11 cells; assay: Recombinant human MIF added to MV4-11 cultures (FACS Ki67, qPCR); assay type: cell-based
Protocol: (§7) To examine the role of MIF in the proliferation of AML blasts, different doses of recombinant human MIF peptides were added to the cell cultures of MV4-11 (AML blast cell line). […] To investigate how MIF affects immune cells, MIF was tested on RAW264.7 (a macrophage cell line). […] The findings are consistent with a previous report that primary AML blasts constitutively express MIF, stimulating bone marrow mesenchymal cells to release CXCL8 (IL-8), a ligand that also binds to CXCR2, to sustain blasts' proliferation. In addition, CXCL1/5/8 were routinely and highly released (a median level >1000 pg/mL) in the supernatants of culturing naïve AML patient cells ex vivo.
For MIF in vitro experiments, different doses of MIF were added to 1 ml of 1×10^6 MV4-11 cells or RAW264.7 cells for each experimental group in 24-well plates. Two days after the one dose treatment, cells were then collected for either analyses by FACS and qPCR. […]
as §3, with “Cells were harvested and examined for the expression of cell surface biomarkers (CD) and intracellular proteins by multichromatic FACS as previously described.” left out, “Concentrations of the Abs were used per the manufacturers' recommendations.” left out
RNA Isolation and Real-Time Polymerase Chain Reaction (qPCR) analysis. […] With an Applied Biosystems 7900HT Real-Time PCR machine, qPCR was performed and analyzed using known primers for the specific markers. […] The relative expression level of a gene was determined using the ΔΔCt method and normalized to GAPDH.

[10] = tested on: RAW264.7 (a macrophage cell line); assay: Recombinant human MIF added to RAW264.7 cultures (FACS Ki67); assay type: cell-based; settings: 5 ng/ml MIF; 2 days
Protocol: as §7, with “vivo. […]” for “vivo.”
as §3, with “Cells were harvested and examined for the expression of cell surface biomarkers (CD) and intracellular proteins by multichromatic FACS as previously described.” left out, “Concentrations of the Abs were used per the manufacturers' recommendations.” left out, “Data was analyzed using the FlowJo software (Tree Star Inc., Ashland, OR).” left out

[11] = newly diagnosed AML, Patient #5, 50 uM BAY11-7821
[12] = MV4-11, 10 days after TKI treatment
[13] = MV4-11, 20 days after TKI treatment
[14] = MV4-11, 28 days after TKI treatment
[15] = primary BMMNC ex vivo (Patient #2 and #3), 50 uM CXCR2-I

## Cc1ccc(S(=O)(=O)C=CC#N)cc1 [NFκB-I, BAY11-7082 (BAY11-7821)]
[1]
  most effective dose on MV4-11 based on the FACS analyses: 50 µM
[2]; [11]
  percentage of Ki67+CD33+ proliferating blasts: 25%
  percentage of viable CD33+CD13+ primary blasts: 0.14%

## CNC(=O)c1cc(Oc2ccc(NC(=O)Nc3ccc(Cl)c(C(F)(F)F)c3)cc2)ccn1 [SORA, Sorafenib]
[3]
  pBAD expression in MV4-11 (FACS): significant increase
[4]
  pBAD expression in MOLM-14 (FACS): significant increase
[5]; [12]
  population of viable CD44+pBAD+ cells: 0.24%
  population of viable Ki67+CD33+CD44+ cells: 2.54%
[5]; [13]
  population of viable CD44+pBAD+ cells: 0.8%
  population of viable Ki67+CD33+CD44+ cells: 1.62%
[5]; [14]
  population of viable Ki67+CD33+CD44+ cells: 2.82%
[6]; 3 days after TKI treatment
  newly formed blast clusters (morphology): observed
[6]; 10 days after TKI treatment
  re-growth / tumorigenic clusters of MV4-11: grew confluent
[7]
  re-growth / tumorigenic clusters of MOLM-14: grew confluent
[8]; 72-hour treatment in vitro
  apoptosis and cell cycle arrest in MV4-11: significantly induce

## CO[C@@H]1[C@H](N(C)C(=O)c2ccccc2)C[C@H]2O[C@]1(C)n1c3ccccc3c3c4c(c5c6ccccc6n2c5c31)C(=O)NC4 [MIDO, Midostaurin]
[5]; [12]
  population of viable CD44+pBAD+ cells: 0.2%
  population of viable Ki67+CD33+CD44+ cells: 2.54%
[5]; [13]
  population of viable CD44+pBAD+ cells: 0.43%
  population of viable Ki67+CD33+CD44+ cells: 1.41%
[5]; [14]
  population of viable CD44+pBAD+ cells: 1.23%
  population of viable Ki67+CD33+CD44+ cells: 2.54%
[8]
  reduction of viable MV4-11: 60%

## O=C(Nc1ccc([N+](=O)[O-])cc1O)Nc1ccccc1Br [CXCR2-I, SB225002]
[1]; MV4-11, 80 nM GILT, 50 uM SB225002, 3 days
  percentage of Ki67+CD44+ blasts: 5.7%
[1]
  most effective dose on MV4-11 based on the FACS analyses: 50 µM
[2]; [15]
  percentage of Ki67+CD13+ blasts: 14.3%
  percentage of viable CD33+CD13+ primary blasts: 3.11%

B1: MIF: recombinant human macrophage migration inhibitory factor (Peprotech 300-69) (protein, UniProt P14174 2-115, looked up)
Macrophage migration …: PMFIVNTNVPRASVPDGFLSELTQQLAQATGKPPQYIAVHVVPDQLMAFGGSSEPCALCSLHSIGKIGGAQNRSYSKLLCGLLAERLRISPDRVYINYYDMNAANVGWNNSTFA
[9]; 5 ng/ml MIF, the lowest dose, 2 days
  MV4-11 proliferation (percentage of Ki67+): induce MV4-11's proliferation
[9]; MV4-11, different doses of MIF, qPCR
  gene expressions of CXCL1, CXCL5, CXCL8 (IL-8), CDK4 and CYCLIN E1: effectively induce
[9]; exogenous recombinant MIF in vitro
  CXCR2 expression in MV4-11 blasts: effectively induced
[10]
  RAW264.7 proliferation (Ki67): effectively suppressed

Source: patent US20250123282A1, “METHODS FOR EVALUATION AND TREATMENT OF TYROSINE KINASE INHIBITOR (TKI)-RESISTANT ACUTE MYELOID LEUKEMIA” (LOMA LINDA UNIVERSITY, priority 2021, published 2025)
